The record followed here is patent publication US20220380341A1, “INHIBITORS OF HIV-1 NEF FOR THE TREATMENT OF HIV DISEASE” (priority 2018, published 2022).

In data set [1] the test system is HIV-1NL4-3. The data set is described as follows: HIV-1 infectivity assay in TZM-bl reporter cell line (LTR-luciferase, 48 h). Type of data set: cell-based. Particulars: Human immunodeficiency virus 1, TZM-bl, 48 h, Table 1; TZM-bl cells, 1 μM, 48 h; 100% = Nef-defective HIV-1; read-out: HIV-1 Infectivity % Inhibition Norm. to Δ-Nef @ 1 μM. Here is the method:
(§1) In particular, the tables show antiretroviral activity as percent inhibition of HIV-1 infectivity at 1 μM. In brief, this assay uses the TZM-bl reporter cell line, which carries a stable copy of the HIV-1 LTR coupled to luciferase. Cells are infected with HIV-1NL4-3 in the presence and absence of each compound, and luciferase activity is measured 48 h later. This assay measures early events in the HIV-1 life cycle, including viral entry, reverse transcription, nuclear entry and integration, and viral transcription. All assays include control cells infected with Nef-defective HIV-1, which replicates at 30-50% of wild-type in this system. Results are normalized to percent inhibition relative to DMSO-treated control cells infected with wild-type HIV-1 (0% inhibition) and DMSO-treated cells infected with Nef-defective HIV-1 (100% of the Nef-dependent effect)—see column 3. In addition, cell viability is measured in the TZM-bl cell line in the presence of each test compound and in the absence of HIV-1 infection, using the Cell Titer Blue cell viability assay (Promega; column 4).

The test system of data set [2] is TZM-bl cell line. It is filed as cell-based. Particulars: for % Cell Viability: 1.0 μM, uninfected TZM-bl, CellTiter-Blue, Table 4. The method, then:
as §1

For data set [3], the target named is HIV-1 NefNL4-3 (Human immunodeficiency virus type 1 group M subtype B, UniProt P03406, A33V/T15A/T51N/V11I). Kind of data set: Surface plasmon resonance binding to recombinant full-length Nef (NL4-3). Conditions: for Nef NL4-3 Binding, SPR 1:1 or 2-site fitting KD1: 1:1 Langmuir fit where the KD2 cell says '1 to 1 fitting', else 2-site fit.
Setting [4] is: Table 2, uninfected TZM-bl cells, 1 μM, Cell Titer Blue.
Setting [5] is: read-out: Nef NL4-3 Binding, SPR 1:1 or 2-site fitting KD1.

Like-named read-outs stand apart in the source and are kept apart here.

In general, inhibition refers to the percentage by which the read-out fell short of the control. As to `Oc1c(CCc2ccc(F)cc2)c(CCCc2ccc(F)cc2)nn1-c1nc2ccccc2[nH]1` [Compound I-120, 1-(1H-1,3-benzodiazol-2-yl)-4-[2-(4-fluorophenyl)ethyl]-3-[3-(4-fluorophenyl)propyl]-1H-pyrazol-5-ol], the inhibition at 1 µM in data set [1] is 70.1%. The “Percent Viability @ 1 μM (TZM-bl cells)” value in data set [2] (human, 1 μM) came to 89.1%. `CC(C)(C)OC(=O)N1CCC(CCc2c(-c3cccc(S(C)(=O)=O)c3)nn(-c3cc(C(F)(F)F)n[nH]3)c2O)CC1` [Compound I-605]: the “% Cell Viability” value in data set [2] was 100%. The “Percent Viability @ 1 μM (TZM-bl cells)” value in data set [2] (setting [4]) turned out to be 106.0%. In the case of `CS(=O)(=O)c1ccc(-c2nn(-c3cc(C4CC4)n[nH]3)c(O)c2CCC2CCOCC2)cc1` [Compound I-607], in data set [2], the “Percent Viability @ 1 μM (TZM-bl cells)” value worked out at 100.0%.

In the case of `CCOC(=O)c1ccc(CCc2c(-c3ccccc3)nn(-c3cc(C(F)(F)F)n[nH]3)c2O)cc1` [Compound I-612], in data set [2], the “% Cell Viability” value is given as 100%. Besides, the “Percent Viability @ 1 μM (TZM-bl cells)” value in data set [2] (setting [4]) is given as 100.7%.

As to `Oc1c(CCc2ccncc2)c(-c2ccc(F)cc2)nn1-c1cc(C(F)(F)F)n[nH]1` [Compound I-620], the “Percent Viability @ 1 μM (TZM-bl cells)” value in data set [2] was 100.0%. On to `CC(=O)N1CCC(c2nn(-c3nc4ccccc4[nH]3)c(O)c2CCc2ccc(F)cc2)CC1` [Compound I-741, 1-{4-[1-(1H-1,3-benzodiazol-2-yl)-4-[2-(4-fluorophenyl)ethyl]-5-hydroxy-1H-pyrazol-3-yl]piperidin-1-yl}ethan-1-one], for which the Kd in data set [3] was found to be 3260 nM; in data set [3] (read-out: Nef NL4-3 Binding, SPR 1:1 or 2-site fitting KD2, Table 1, 2-site fit, second component), 10600 nM. As for `CS(=O)(=O)N1CCC(c2nn(-c3nc4ccccc4[nH]3)c(O)c2CCc2ccc(F)cc2)CC1` [Compound I-743, 1-(1H-1,3-benzodiazol-2-yl)-4-[2-(4-fluorophenyl)ethyl]-3-(1-methanesulfonylpiperidin-4-yl)-1H-pyrazol-5-ol], the “Nef NL4-3 Binding, SPR 1:1 or 2-site fitting KD1” value in data set [3] (Table 1) was “No Interaction”. On to `O=S(=O)(c1c(Cl)nc2sccn12)N1CCC(c2nn(-c3nc4ccccc4[nH]3)c(O)c2CCc2ccc(F)cc2)CC1` [Compound I-752, 1-(1H-1,3-benzodiazol-2-yl)-3-[1-({6-chloroimidazo[2,1-b][1,3]thiazol-5-yl}sulfonyl)piperidin-4-yl]-4-[2-(4-fluorophenyl)ethyl]-1H-pyrazol-5-ol], for which the inhibition at 1 µM in data set [1] amounted to 14.7%. Moreover, the “Percent Viability @ 1 μM (TZM-bl cells)” value in data set [2] (human, 1 μM) turned out to be 97.7%. Take `CC(C)(C)OC(=O)N1CCCC(c2nn(-c3nc4ccccc4[nH]3)c(O)c2CCc2ccc(F)cc2)C1` (stereo not drawn) [Compound I-755, tert-butyl 3-[1-(1H-1,3-benzodiazol-2-yl)-4-[2-(4-fluorophenyl)ethyl]-5-hydroxy-1H-pyrazol-3-yl]piperidine-1-carboxylate]: the Kd in data set [3] (Table 1, 2-step induced-fit model, read-out: Nef NL4-3 Binding, SPR 2-state fitting KD) came out at 296 nM; in data set [3] (setting [5]), 52.7 nM. Turning to `CN1CCC(c2nn(-c3nc4ccccc4[nH]3)c(O)c2CCc2ccc(F)cc2)CC1` [Compound I-801, 1-(1H-1,3-benzodiazol-2-yl)-4-[2-(4-fluorophenyl)ethyl]-3-(1-methylpiperidin-4-yl)-1H-pyrazol-5-ol], the “Nef NL4-3 Binding, SPR 1:1 or 2-site fitting KD1” value in data set [3] (Table 1) is given as “No Interaction”. Turning to `Oc1c(CCc2ccc(F)cc2)c(C2CCN(c3ncccn3)CC2)nn1-c1nc2ccccc2[nH]1` [Compound I-903, 1-(1H-1,3-benzodiazol-2-yl)-4-[2-(4-fluorophenyl)ethyl]-3-[1-(pyrimidin-2-yl)piperidin-4-yl]-1H-pyrazol-5-ol], the Kd in data set [3] (setting [5]) came out at 9980 nM. With `Oc1c(Cc2ccc(F)c(F)c2)c(C2CCN(CC(F)(F)F)CC2)nn1-c1nc2ccccc2[nH]1` [Compound I-1001, 1-(1H-1,3-benzodiazol-2-yl)-4-[(3,4-difluorophenyl)methyl]-3-[1-(2,2,2-trifluoroethyl)piperidin-4-yl]-1H-pyrazol-5-ol], the Kd in data set [3] (Table 1, 2-site fit, second component, read-out: Nef NL4-3 Binding, SPR 1:1 or 2-site fitting KD2) was 500 nM; in data set [3] (setting [5]), 257 nM.

For the molecule `Fc1ccc(-c2c(CCc3ccccc3)cnn2-c2cc(C(F)(F)F)n[nH]2)cc1` [Compound I-1501], the “% Cell Viability” value in data set [2] was 97.9%. Regarding `Fc1ccc(-c2nn(-c3cc(C(F)(F)F)n[nH]3)cc2CCc2ccccc2)cc1` [Compound I-1501], the “Percent Viability @ 1 μM (TZM-bl cells)” value in data set [2] (setting [4]) worked out at 102.5%.
